Test results as given in article PMC4805609, “Estrogenic Effects of Several BPA Analogs in the Developing Zebrafish Brain” (Frontiers in Neuroscience, 2016).
Where two headings read alike, the source gives them in different places.

Columns and labels:
zfERβ1 = biological target: T1, zfERβ1 (Danio rerio, UniProt Q5PR29); experiment: cyp19a1b-luciferase reporter gene assay in U251-MG glial cells transfected with zfERβ1; type: cell-based, zebrafish; conditions: 10–9 M, 24 h, U251-MG cells with ERβ1, vs DMSO
T1 sequence (Q5PR29 1-592): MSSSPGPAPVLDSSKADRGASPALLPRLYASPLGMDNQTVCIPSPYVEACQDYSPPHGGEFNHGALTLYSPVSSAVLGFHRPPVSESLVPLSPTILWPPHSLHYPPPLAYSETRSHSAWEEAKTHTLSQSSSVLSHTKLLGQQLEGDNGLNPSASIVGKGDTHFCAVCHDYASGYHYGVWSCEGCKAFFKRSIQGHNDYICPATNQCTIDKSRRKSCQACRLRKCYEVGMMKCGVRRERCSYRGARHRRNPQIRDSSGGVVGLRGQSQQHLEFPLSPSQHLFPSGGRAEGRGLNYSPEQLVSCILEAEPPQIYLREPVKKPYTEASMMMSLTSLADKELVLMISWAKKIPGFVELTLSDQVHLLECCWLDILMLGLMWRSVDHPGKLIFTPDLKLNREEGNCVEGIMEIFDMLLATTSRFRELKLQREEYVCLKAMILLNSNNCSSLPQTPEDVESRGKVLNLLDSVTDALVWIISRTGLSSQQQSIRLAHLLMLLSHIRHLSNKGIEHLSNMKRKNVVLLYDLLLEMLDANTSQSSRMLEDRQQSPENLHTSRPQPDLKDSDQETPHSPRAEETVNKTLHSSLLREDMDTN
Source text: The zfER-α, zfER-β1, and zfER-β2 expression vectors correspond to Topo-pcDNA3 expression vector (Invitrogen, San Diego, CA, USA), containing the coding regions of each zebrafish estrogen receptor cDNA as previously described (Menuet et al., [2002]). The cyp19a1b-Luciferase plasmid consists of 500 bp of the proximal promoter region of zebrafish cyp19a1b gene, containing an ERE, coupled to the luciferase reporter gene (Menuet et al., [2002]).
(§1) Human U251-MG glial cells were maintained in phenol red-free Dulbecco's Modified Eagle's Medium (DMEM; Life Technologies, Saint Aubin, France) supplemented with 10% fetal calf serum (Biowest, Nuaillé, France), 4 mM L-Glutamine (Gibco, Carlsbad, CA, USA) and 1 mM Na-Pyruvate (Life Technologies, Saint Aubin, France) and kept at 37°C and 5% CO2 atmosphere (Le Page et al., [2006]). The medium was also supplemented with 20 U/mL penicillin, 20 μg/mL streptomycin, and 50 ng/mL amphotericin B (Gibco). For transfections, cells were plated in 24-well plates at a density of 25,000 cells/ml in the same medium, except the fetal calf serum was charcoal-treated and used at a concentration of 2.5%. Cells were transfected with 25 ng/well either the vector expression containing or not the zfERα, zfERβ1, zfERβ2 coding region and cytomegalovirus [CMV]−β-Galactosidase, and 150 ng/well of the cyp19a1b-Luciferase reporter plasmid, using JetPEI as a transfection reagent (Polyplus Transfection, Illkirch, France). […] Luciferase activity was measured 24 h later (Luciferase assay system, Promega, Madison, WI, USA). β-Galactosidase activity was used to normalize transfection efficiency. Chemicals were tested in at least 3 independent experiments and each experiment was performed in triplicate.

cyp19a1b transcripts = experiment: cyp19a1b in situ hybridization on 7-dpf brain sections; type: in vivo, zebrafish; conditions: 7-dpf larvae; for distribution of cyp19a1b transcripts in the whole brain: transverse sections
Procedure: (§2) For subsequent RT-qPCR and in situ hybridization analysis with wild type zebrafish, groups of 80 embryos (for each condition) were placed after 1 day post-fertilization (1-dpf) in a large glass flask containing 100 ml of embryonic medium (Mouriec et al., [2009b]). […] The embryos were held in the exposure flasks until 7-dpf larva stage. […] Embryos were maintained in the exposure dishes until 4-dpf larva stage. During the treatment period, 100% of the exposure medium was renewed every 24 h (for both wild type and transgenic zebrafish).
Larvae used for in situ hybridization experiments originated from the same exposition groups than RT-qPCR experiments. After exposure to the different conditions, 10 wild type 7-dpf larvae (for each treatment) were fixed overnight at 4°C in 4% paraformaldehyde, before embedding in parrafin. Serial thin transverse sections ([…]) were placed on cryofrost slides and subjected to in situ hybridization experiments. Sense and antisense digoxigenin-labeled riboprobes for the cyp19a1b gene were transcribed using the Digoxigenin RNA labeling kit in accordance with the manufacturer's instructions (Roche, Mannheim, Germany) and as previously described (Menuet et al., [2005]). The brain sections were processed for in situ hybridization using stringent conditions as previously published (D'Amico et al., [2011], [2013]). After NBT/BCIP revelation, sections were counterstained with DAPI, and mounted in a drop of vectashield (Vector Laboratories). All sections were photographed with an Olympus PROVIS AX70 microscope with a digital camera (Olympus SP71), or a Nikon multizoom AZ100 macroscope with a DS-Ri1 color camera.

zfERβ2 = zfERβ2 (Danio rerio, UniProt Q7ZU32); experiment: cyp19a1b-luciferase reporter gene assay in U251-MG glial cells transfected with zfERβ2; type: cell-based, zebrafish; conditions: 10–9 M, 24 h, U251-MG cells with ERβ2, vs DMSO
Procedure: as §1, with “The” for “Human U251-MG glial cells were maintained in phenol red-free Dulbecco's Modified Eagle's Medium (DMEM; Life Technologies, Saint Aubin, France) supplemented with 10% fetal calf serum (Biowest, Nuaillé, France), 4 mM L-Glutamine (Gibco, Carlsbad, CA, USA) and 1 mM Na-Pyruvate (Life Technologies, Saint Aubin, France) and kept at 37°C and 5% CO2 atmosphere (Le Page et al., [2006]). The”

zfERα [1] = biological target: T2, zfERα (Danio rerio, UniProt P57717); experiment: cyp19a1b-luciferase reporter gene assay in U251-MG glial cells transfected with zfERα; type: cell-based, zebrafish; parameters: containing the coding regions of each zebrafish estrogen receptor cDNA; expressed in transfected cells; host or cells: human U251-MG glial cells (ER-negative); conditions: for cyp19a1b-luciferase reporter gene induction: 10–6 M, 24 h, U251-MG cells with ERα, vs DMSO
T2 sequence (P57717 1-569): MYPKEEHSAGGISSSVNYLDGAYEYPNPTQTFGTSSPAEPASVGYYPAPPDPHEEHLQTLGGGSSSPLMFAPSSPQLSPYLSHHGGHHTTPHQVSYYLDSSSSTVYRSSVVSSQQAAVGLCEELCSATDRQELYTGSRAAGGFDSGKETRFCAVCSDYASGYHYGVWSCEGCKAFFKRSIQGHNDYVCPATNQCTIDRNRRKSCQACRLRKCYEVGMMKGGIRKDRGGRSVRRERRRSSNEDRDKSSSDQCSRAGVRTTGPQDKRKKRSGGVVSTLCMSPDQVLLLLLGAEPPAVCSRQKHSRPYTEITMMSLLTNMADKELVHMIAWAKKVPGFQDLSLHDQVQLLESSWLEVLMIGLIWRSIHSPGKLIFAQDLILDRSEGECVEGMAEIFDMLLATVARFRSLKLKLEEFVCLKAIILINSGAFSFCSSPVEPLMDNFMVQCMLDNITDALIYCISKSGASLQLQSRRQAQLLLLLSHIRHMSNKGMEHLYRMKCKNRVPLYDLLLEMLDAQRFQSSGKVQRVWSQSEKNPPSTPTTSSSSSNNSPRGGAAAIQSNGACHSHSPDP
Procedure: as §1, with “The” for “Human U251-MG glial cells were maintained in phenol red-free Dulbecco's Modified Eagle's Medium (DMEM; Life Technologies, Saint Aubin, France) supplemented with 10% fetal calf serum (Biowest, Nuaillé, France), 4 mM L-Glutamine (Gibco, Carlsbad, CA, USA) and 1 mM Na-Pyruvate (Life Technologies, Saint Aubin, France) and kept at 37°C and 5% CO2 atmosphere (Le Page et al., [2006]). The”

zfERα [2] = biological target: T2, zfERα; experiment: competitive binding assay vs [3H]-E2 on in vitro translated zfERα; parameters: containing the coding regions of each zebrafish estrogen receptor cDNA; species or system zebrafish; conditions: for receptor-binding activity: competition with [3H]-E2, ERα, Figure 8A; for IC50: displacement of 10^−9 M [3H]-E2, ERα
Procedure: We also performed a competitive binding assay to test the binding properties of our compounds of interest with the three zfERs (Blair et al., [2000]). The three zebrafish estrogen receptor proteins were synthesized using the Topo-pcDNA3 expression vector containing the coding region of zfERα, zfERβ1, and zfERβ2 (Menuet et al., [2002]). The TNT Quick Coupled Transcription/Translation Systems kit (Promega, Madison, WI, USA) was used for synthesis of zfER proteins by adding 1 μg of each ER expression vector and according to the manufacturer's protocol. […] IC50 were calculated using GraphPad Prism, version 6.07.

cyp19a1b gene = experiment: RT-qPCR of cyp19a1b transcripts in wild type 7-dpf larva brains
Procedure: as §2
Tissue was sonicated (10 s, 3 times) in 250 μL Trizol Reagent (Invitrogen) and RNA extractions were carried out according to the manufacturer's protocol. Reverse transcription was carried out by incubating 2μg total RNA with 1μg of random primer oligonucleotides, 2.5ṁM dNTPs, and 50 U MMLV-RT (Promega) in the appropriate buffer for 10 min at 65°C and 60 min at 37°C. Quantitative Polymerase chain reaction (qPCR) experiments were performed in an iCycler thermocycler coupled to the MyiQ detector (Bio-Rad. Hercules, CA, USA) using iQ SYBR-Green Supermix (Bio-Rad) according to the manufacturer's protocol. The following primers were used: ef1 (fw) 5′-[…]-3′; ef1 (rev) 5′-[…]-3′; cyp19a1b (AroB; fw) 5′-[…] For each condition, the RT-PCR experiment was run in triplicates. Expression levels of ef1 mRNA were used to normalize cyp19a1b expression levels. Melting curve and PCR efficiency analyses were performed to confirm correct amplification. For quantification of PCR results, the threshold cycle (Ct) was determined for each reaction. Ct values for each gene of interest were normalized with the housekeeping gene ef1, using the ΔΔCt method. Normalized values were used to calculate the degree of induction or inhibition expressed as a “fold difference” compared to normalized control values.

cyp19a1b promoter = experiment: EASZY assay: GFP fluorescence in brain of live cyp19a1b-GFP transgenic 4-dpf larvae; type: in vivo, zebrafish; conditions: 4-dpf cyp19a1b-GFP larvae, exposure 2 hpf to 4 dpf
Procedure: Quantification of fluorescence in transgenic cyp19a1b-GFP zebrafish larva brain was performed according to Brion et al. ([2012]). In this assay, estrogenic activity is detected in living 4 days-old larvae (treated or not with an estrogen mimic compound) from the observation of the reporter gene fluorescence in the radial glial cells. […] All photographs were taken using the same parameters: only the head was photographed under a X10 objective, with a 134 ms exposure time and maximal intensity. Photographs were analyzed using the Axiovision Imaging software and fluorescence quantification was performed using the ImageJ software (http://rsbweb.nih.gov/ij/). For each picture, the integrated density was measured, i.e., the sum of the gray-values of all the pixels within the region of interest. A gray-value of 290 was defined as background value. For each micrograph the fluorescence fold induction of fluorescence was calculated comparing the integrated pixel density with the average fluorescence induction obtained in the control group.

zebrafish embryos/larvae = experiment: Mortality, toxicity, teratogenicity and motility of exposed embryos/larvae; type: in vivo; conditions: EE2 1 nM, BPA 0.1, 1, 10 μM; until 7-days larval stage; data not shown

zfERβ2, sequence (Q7ZU32 1-553): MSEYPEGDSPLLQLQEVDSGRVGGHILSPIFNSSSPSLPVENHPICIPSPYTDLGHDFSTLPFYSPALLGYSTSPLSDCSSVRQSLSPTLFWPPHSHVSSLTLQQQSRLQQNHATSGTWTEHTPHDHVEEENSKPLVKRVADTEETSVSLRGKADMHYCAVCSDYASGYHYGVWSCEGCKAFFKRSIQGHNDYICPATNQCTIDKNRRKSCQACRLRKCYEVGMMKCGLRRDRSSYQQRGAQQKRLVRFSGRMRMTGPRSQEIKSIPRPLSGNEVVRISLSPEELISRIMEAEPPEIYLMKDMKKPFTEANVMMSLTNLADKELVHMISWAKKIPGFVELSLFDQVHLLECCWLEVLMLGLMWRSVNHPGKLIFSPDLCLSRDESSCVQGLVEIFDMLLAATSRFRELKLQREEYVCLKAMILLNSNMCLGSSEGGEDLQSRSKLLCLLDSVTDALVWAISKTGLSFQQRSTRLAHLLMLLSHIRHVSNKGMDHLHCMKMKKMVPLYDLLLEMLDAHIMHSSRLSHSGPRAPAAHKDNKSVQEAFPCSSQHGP

C#C[C@]1(O)CC[C@H]2[C@@H]3CCc4cc(O)ccc4[C@H]3CC[C@@]21C [EE2, 17α-ethinylestradiol, reference compound]
cyp19a1b-luciferase reporter gene induction (zfERβ1): strong induction
distribution of cyp19a1b transcripts in the whole brain (cyp19a1b transcripts; EE2 1 nM): massive over-expression of the cyp19a1b transcripts
cyp19a1b-luciferase reporter gene induction (zfERβ2): strong induction

C[C@]12CC[C@@H]3c4ccc(O)cc4C[C@@H](CCCCCCCCC[S+]([O-])CCCC(F)(F)C(F)(F)F)[C@H]3[C@@H]1CC[C@@H]2O (stereo partly drawn) [ICI, reference compound]
effect on BPA, BPF and BPAF stimulations of cyp19a1b-luciferase (zfERα [1]; simultaneous treatment, ERα-expressing U251-MG cells, Figure 7B): completely abolished

Oc1ccc(Cc2ccc(O)cc2)cc1 [BPF, 4,4′-dihydroxydiphenyl methane]
receptor-binding activity (zfERα [2]): bind in vitro to ERα receptor
IC50 (zfERα [2]): 10.6 µM
cyp19a1b-luciferase reporter gene induction (zfERα [1]): increased luciferase activity in ERα cells, but the stimulation did not reach statistical significance
cyp19a1b gene expression, fold induction relative to DMSO (cyp19a1b gene; 1 μM, 7-dpf larvae brains, six independent exposures, Figure 1B): 20 fold
GFP fluorescence, fold induction above DMSO control (cyp19a1b promoter; 1 μM): 13 fold
distribution of cyp19a1b transcripts in the whole brain (cyp19a1b transcripts; 1 μM): identical to EE2- and BPA-treated animals

CC(C)(c1ccc(O)cc1)c1ccc(O)cc1 [BPA, 2,2-bis(4-hydroxyphenyl)propane, reference compound]
receptor-binding activity (zfERα [2]): bind in vitro to ERα receptor
IC50 (zfERα [2]): 2.8 µM
toxic or teratogenic effect (zebrafish embryos/larvae): did not caused notable toxicological effects
cyp19a1b-luciferase reporter gene induction (zfERα [1]): significant stimulation
fold induction at 0.1 µM (cyp19a1b gene; Danio rerio, read-out: cyp19a1b gene expression, fold induction relative to DMSO, 0.1 μM, 7-dpf larvae brains, Figure 1A): 9
fold induction at 1 µM (cyp19a1b gene; Danio rerio, read-out: cyp19a1b gene expression, fold induction relative to DMSO, 1 μM, 7-dpf larvae brains, Figure 1A): ~20
fold induction at 1 µM (cyp19a1b gene; Danio rerio, read-out: cyp19a1b gene expression, fold induction relative to DMSO, 1 μM, 7-dpf larvae brains, six independent exposures, Figure 1B): ~36
fold induction at 10 µM (cyp19a1b gene; Danio rerio, read-out: cyp19a1b gene expression, fold induction relative to DMSO, 10 μM, 7-dpf larvae brains, Figure 1A): 12
fold induction at 1 µM (cyp19a1b promoter; Danio rerio, read-out: GFP fluorescence, fold induction above DMSO control): 16
cyp19a1b transcripts in the nucleus recessus posterioris (nrp), caudal hypothalamus (cyp19a1b transcripts; 1 μM): strong levels of cyp19a1b transcripts
distribution of cyp19a1b transcripts in the whole brain (cyp19a1b transcripts; 1 μM): strong presence of cyp19a1b transcripts in virtually identical regions than EE2-treated larvae
